# Source: publication PMC9618446 (Biomedicine & Pharmacotherapy, 2022)
# Assays:
# Format in all cases: cell-based
# [1] = test system: SARS-CoV-2 S protein variant N501Y PsV; conditions: read-out: IC50 against SARS-CoV-2 S variant PsV N501Y
# [2] = test system: SARS-CoV-2 S protein variant P681H PsV; conditions: read-out: IC50 against SARS-CoV-2 S variant PsV P681H
# [3] = test system: SARS-CoV-2 S protein variant D614G PsV; conditions: read-out: IC50 against SARS-CoV-2 S variant PsV D614G
structure (smiles),measurement,setting,value
"COc1c(O)cc2oc(-c3ccccc3)cc(=O)c2c1O [OA, Oroxylin A]",IC50,[1],13.6 ± 1.24 µM
same,IC50,[2],19.6 ± 2.39 µM
same,IC50,[3],18.1 ± 0.67 µM
